Calls of active or inactive are those of the source.
Experiments:
Coagulation factor XII = molecular target: T1, Coagulation factor XII (Homo sapiens, UniProt P00748); type: functional;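 also: activated factor XIIa alpha cleaving a fluorogenic AMC peptide substrate; inhibitor potency from loss of enzyme activity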
T1 sequence (P00748 whole entry): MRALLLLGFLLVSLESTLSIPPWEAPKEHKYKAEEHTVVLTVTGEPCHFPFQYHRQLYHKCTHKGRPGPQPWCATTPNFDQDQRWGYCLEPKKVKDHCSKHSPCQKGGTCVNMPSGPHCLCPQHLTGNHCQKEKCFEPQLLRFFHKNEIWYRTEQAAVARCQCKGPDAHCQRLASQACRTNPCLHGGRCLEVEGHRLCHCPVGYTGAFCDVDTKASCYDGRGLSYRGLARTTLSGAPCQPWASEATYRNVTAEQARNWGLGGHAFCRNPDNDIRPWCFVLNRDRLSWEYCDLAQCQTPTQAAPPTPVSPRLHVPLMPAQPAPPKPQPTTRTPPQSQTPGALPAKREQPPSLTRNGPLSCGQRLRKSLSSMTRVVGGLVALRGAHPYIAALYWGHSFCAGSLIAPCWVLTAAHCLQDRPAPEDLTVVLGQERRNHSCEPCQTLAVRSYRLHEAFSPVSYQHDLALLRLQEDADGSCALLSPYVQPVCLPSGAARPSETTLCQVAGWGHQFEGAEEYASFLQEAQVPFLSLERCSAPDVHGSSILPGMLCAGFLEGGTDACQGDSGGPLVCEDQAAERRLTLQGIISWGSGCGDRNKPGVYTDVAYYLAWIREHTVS

[1] = molecular target: DNA dC->dU-editing enzyme APOBEC-3G (Homo sapiens, UniProt Q9HC16); experiment: Dose Response confirmation of small molecule APOBEC3G DNA Deaminase Inhibitors via a fluorescence-based single-stranded DNA deaminase assay. [Related pubchem assays (depositor defined):AID493012, AID493028]; type: functional
[2] = molecular target: Luciferin 4-monooxygenase (Photinus pyralis, UniProt P08659); experiment: inhibition of purified Photinus pyralis luciferase – biochemical, luminescence, dose response (AID 1891)
[3] = molecular target: Peroxisome proliferator-activated receptor gamma/Nuclear receptor coactivator 3 (Homo sapiens, UniProt P37231); experiment: TR-FRET dose response biochemical High Throughput Screening assay for agonists of the steroid receptor coactivator 3 (SRC-3) recruitment by the peroxisome proliferator-activated receptor gamma (PPAR gamma): non-selective agonists. [Related pubchem assays: 1301 (Confirmation screen.), 1048 (Primary screen.)]; type: functional
Peroxisome proliferator-activated receptor gamma/Nuclear receptor coactivator 3, sequence (P37231 whole entry): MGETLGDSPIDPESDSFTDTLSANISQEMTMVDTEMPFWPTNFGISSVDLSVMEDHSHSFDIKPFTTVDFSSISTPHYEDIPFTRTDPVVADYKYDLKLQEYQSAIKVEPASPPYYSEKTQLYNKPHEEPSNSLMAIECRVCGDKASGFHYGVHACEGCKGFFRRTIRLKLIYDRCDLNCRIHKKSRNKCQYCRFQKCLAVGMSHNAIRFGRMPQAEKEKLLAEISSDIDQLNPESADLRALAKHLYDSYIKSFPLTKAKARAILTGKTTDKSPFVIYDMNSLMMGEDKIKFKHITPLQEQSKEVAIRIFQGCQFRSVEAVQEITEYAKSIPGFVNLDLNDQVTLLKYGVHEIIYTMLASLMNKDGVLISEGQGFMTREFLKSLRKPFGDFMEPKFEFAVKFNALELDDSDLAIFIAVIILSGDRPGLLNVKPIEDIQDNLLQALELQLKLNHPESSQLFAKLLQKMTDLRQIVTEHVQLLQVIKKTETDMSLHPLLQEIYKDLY
Peroxisome proliferator-activated receptor gamma/Nuclear receptor coactivator 3, sequence (Q9Y6Q9 whole entry, further chain): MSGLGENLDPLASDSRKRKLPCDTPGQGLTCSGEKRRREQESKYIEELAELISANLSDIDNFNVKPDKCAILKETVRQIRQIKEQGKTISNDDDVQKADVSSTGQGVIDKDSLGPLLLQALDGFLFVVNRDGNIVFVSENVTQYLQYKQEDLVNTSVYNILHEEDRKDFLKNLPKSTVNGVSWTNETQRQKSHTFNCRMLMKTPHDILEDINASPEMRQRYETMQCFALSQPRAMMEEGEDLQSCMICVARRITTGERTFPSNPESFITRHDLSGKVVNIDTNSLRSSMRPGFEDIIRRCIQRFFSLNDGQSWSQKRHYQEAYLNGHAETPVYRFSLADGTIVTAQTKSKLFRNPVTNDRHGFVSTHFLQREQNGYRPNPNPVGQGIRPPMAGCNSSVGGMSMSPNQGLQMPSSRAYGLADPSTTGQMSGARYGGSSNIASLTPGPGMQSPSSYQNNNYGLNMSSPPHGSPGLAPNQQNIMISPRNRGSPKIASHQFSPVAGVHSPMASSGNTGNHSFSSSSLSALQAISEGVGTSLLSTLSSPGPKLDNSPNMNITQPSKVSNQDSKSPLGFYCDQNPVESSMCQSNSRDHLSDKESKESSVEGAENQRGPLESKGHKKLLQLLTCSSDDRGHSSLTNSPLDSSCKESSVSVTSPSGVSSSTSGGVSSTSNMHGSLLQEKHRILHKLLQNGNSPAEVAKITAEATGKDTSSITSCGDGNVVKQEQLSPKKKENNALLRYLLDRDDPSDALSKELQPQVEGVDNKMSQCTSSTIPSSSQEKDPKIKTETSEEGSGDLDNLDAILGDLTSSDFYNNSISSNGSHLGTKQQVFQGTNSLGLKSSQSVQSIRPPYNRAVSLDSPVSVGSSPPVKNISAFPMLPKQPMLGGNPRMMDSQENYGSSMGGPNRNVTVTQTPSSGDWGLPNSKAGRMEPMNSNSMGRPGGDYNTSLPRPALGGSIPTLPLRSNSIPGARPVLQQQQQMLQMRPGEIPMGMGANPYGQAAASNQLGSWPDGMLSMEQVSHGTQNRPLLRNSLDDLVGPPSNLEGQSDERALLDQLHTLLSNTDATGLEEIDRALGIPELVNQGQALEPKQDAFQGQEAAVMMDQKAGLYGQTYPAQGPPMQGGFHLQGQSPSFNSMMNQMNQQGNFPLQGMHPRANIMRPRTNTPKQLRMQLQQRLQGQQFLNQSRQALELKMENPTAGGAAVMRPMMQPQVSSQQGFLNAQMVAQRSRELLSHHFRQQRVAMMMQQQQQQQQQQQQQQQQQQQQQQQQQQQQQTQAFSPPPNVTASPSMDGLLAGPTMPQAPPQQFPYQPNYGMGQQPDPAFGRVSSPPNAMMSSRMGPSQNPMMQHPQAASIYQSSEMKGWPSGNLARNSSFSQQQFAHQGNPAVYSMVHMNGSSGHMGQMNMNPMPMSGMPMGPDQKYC

[4] = molecular target: Peroxisome proliferator-activated receptor gamma/Nuclear receptor coactivator 2 (Homo sapiens, UniProt P37231); experiment: (§1) TR-FRET dose response biochemical High Throughput Screening assay for agonists of the steroid receptor coactivator 2 (SRC-2) recruitment by the peroxisome proliferator-activated receptor gamma (PPAR gamma): non-selective agonists. [Related pubchem assays: 1297, 1032 ]; type: functional
[5] = molecular target: Peroxisome proliferator-activated receptor gamma/Nuclear receptor coactivator 1 (Homo sapiens, UniProt P37231); experiment: as §1, with “1 (SRC-1)” for “2 (SRC-2)”, “assays (depositor defined):AID1300, AID1808, AID504735, AID631]” for “assays: 1297, 1032 ]”; type: protein assay
Peroxisome proliferator-activated receptor gamma/Nuclear receptor coactivator 1, sequence (P37231 whole entry): as the sequence (P37231 whole entry) above
Peroxisome proliferator-activated receptor gamma/Nuclear receptor coactivator 1, sequence (Q15788 whole entry, further chain): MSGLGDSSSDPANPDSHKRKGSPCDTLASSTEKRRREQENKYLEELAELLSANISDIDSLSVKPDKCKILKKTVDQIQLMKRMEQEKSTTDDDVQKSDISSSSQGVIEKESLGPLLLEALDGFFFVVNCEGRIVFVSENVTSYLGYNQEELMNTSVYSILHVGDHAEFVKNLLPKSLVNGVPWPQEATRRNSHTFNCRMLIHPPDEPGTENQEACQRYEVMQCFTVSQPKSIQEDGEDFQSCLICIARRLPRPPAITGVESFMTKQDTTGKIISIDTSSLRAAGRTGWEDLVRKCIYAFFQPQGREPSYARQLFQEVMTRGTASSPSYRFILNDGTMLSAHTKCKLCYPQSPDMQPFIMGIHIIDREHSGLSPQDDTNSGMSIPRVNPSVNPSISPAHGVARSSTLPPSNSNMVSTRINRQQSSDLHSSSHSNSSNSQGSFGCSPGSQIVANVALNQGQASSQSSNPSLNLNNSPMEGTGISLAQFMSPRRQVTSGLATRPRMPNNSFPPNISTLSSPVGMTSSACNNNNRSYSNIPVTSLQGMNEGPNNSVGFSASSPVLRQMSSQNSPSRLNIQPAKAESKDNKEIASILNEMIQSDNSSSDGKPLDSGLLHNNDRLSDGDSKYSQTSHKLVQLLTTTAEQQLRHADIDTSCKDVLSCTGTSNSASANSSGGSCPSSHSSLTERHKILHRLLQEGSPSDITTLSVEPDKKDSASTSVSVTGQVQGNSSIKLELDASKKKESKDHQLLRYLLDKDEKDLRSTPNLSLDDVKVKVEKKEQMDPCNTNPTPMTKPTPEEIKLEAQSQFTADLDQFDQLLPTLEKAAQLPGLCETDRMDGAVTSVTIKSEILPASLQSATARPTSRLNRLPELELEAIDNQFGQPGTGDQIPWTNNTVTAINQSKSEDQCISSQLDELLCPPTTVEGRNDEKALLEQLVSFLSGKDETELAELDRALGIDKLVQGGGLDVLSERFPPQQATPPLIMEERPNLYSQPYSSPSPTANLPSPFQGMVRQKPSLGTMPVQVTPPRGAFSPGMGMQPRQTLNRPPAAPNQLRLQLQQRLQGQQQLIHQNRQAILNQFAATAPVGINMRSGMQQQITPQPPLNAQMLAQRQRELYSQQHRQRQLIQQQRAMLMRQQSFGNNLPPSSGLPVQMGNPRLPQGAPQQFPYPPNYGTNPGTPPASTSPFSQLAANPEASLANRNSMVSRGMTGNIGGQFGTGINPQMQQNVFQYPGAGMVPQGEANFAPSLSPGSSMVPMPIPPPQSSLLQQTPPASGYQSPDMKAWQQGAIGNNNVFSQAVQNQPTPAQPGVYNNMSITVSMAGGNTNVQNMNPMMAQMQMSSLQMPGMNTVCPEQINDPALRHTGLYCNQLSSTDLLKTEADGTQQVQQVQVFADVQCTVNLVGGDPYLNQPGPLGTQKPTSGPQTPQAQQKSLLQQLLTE

Troponin, cardiac muscle = Troponin, cardiac muscle (Homo sapiens, UniProt P19429+P45379+P63316); experiment: Fluorescence-based biochemical high throughput dose response assay for activators of the calcium sensitivity of cardiac Regulated Thin Filaments (RTF). [Related pubchem assays (depositor defined):AID493008, AID493018, AID504382, AID504383]; type: protein-complex assay
Cytochrome P450 2C9 = Cytochrome P450 2C9 (Homo sapiens, UniProt P11712)
Cytochrome P450 2C9, sequence (P11712 whole entry): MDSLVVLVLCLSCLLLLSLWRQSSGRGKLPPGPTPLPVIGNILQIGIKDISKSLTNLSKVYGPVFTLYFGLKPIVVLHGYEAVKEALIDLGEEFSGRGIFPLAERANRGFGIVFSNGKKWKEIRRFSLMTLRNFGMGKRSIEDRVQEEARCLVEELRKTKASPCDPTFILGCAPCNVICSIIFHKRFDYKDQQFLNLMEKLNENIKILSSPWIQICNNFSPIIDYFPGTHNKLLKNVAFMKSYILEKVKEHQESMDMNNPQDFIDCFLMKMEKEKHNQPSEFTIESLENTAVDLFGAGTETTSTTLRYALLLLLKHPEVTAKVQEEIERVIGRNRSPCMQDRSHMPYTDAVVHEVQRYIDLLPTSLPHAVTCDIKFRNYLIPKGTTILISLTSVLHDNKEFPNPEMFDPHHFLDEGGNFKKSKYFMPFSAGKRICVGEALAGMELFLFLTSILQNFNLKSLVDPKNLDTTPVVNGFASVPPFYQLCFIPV

[6] = molecular target: T2, Endoribonuclease toxin MazF (Escherichia coli K-12, UniProt P0AE70); experiment: substrate-only fluorescence increase artefacts – biochemical, single-stranded RNase substrate, counter-screen for MazEF activator project, dose response (AID 588502); type: functional
T2 sequence (P0AE70 whole entry): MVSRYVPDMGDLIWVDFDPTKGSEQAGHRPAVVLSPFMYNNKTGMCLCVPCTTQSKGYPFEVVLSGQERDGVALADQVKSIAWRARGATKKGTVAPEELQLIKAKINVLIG

[7] = HIV-1 AD8 envelope cell-cell fusion blockers – cherry-pick, dose response (AID 652062); type: functional, cell-based;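 also: luciferase signal from cell-cell fusion driven by HIV-1 clade B AD8 Env; potency is for inhibitors of fusion seen as a drop in luminescence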
X-box-binding protein 1 = X-box-binding protein 1 (Homo sapiens, UniProt P17861); type: functional, Cricetulus griseus;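 also: confirmatory dose-response counter-screen serving a CHOP assay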
X-box-binding protein 1, sequence (P17861 whole entry, the tested form may be a part): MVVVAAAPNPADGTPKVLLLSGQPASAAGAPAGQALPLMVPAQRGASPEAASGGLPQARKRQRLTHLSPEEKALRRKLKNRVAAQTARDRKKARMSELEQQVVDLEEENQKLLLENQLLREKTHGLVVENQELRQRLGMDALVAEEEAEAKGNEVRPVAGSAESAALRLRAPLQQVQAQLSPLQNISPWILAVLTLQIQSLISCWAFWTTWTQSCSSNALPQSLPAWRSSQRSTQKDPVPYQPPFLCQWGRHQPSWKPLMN

[8] = blockers of HIV-1 ZM109 envelope-driven cell-cell fusion – HeLa effector, CEM target cells, luciferase, cherry-pick, dose response (AID 652058); type: functional, cell-based;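 also: luciferase signal from HIV-1 Env mediated cell-cell fusion of effector and target cells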
[9] = off-target signal loss in HeLa-CEM21 co-culture – HeLa F-luc CTL cells, cherry-picked, counter-screen for HIV-1 Env fusion inhibitor project, dose response (AID 652040); type: functional, cell-based;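 also: potency for signal decrease marking cytotoxic or nonspecific inhibition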
[10] = blockers of HIV-1 envelope-mediated cell-cell fusion – cherry-pick, dose response (AID 652057); type: functional, cell-based
[11] = molecular target: T2, Endoribonuclease toxin MazF; experiment: activation of MazEF endoribonuclease cleavage – biochemical, fluorescence, single-stranded RNA substrate, uHTS hits, dose response (AID 588481); type: functional
[12] = molecular target: T3, Heat shock factor protein 1 (Mus musculus, UniProt P38532); experiment: decrease of HSF1-responsive luciferase luminescence – cell-based, NIH3T3, dose retest, confirmation (AID 2382); type: functional;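 also: NIH3T3 fibroblasts with HSF1-driven luciferase reporter stressed by proteasome inhibitor MG132; luminescence from HSF1-driven luciferase expression after 8 hours of MG132 stress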
T3 sequence (P38532 whole entry): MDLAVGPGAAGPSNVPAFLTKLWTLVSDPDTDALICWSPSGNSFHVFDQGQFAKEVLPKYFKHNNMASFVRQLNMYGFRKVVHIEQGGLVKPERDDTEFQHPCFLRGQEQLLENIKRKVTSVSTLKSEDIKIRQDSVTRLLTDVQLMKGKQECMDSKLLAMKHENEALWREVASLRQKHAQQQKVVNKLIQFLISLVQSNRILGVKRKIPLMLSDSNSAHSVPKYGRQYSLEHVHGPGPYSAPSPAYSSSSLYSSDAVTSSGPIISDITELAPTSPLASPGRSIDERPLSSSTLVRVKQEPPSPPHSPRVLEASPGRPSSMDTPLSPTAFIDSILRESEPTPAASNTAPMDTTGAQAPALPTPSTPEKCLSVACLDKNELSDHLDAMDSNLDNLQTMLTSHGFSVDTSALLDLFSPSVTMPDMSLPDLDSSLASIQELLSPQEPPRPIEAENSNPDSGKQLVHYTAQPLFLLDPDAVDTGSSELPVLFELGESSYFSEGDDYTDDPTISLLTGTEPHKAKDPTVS

[13] = molecular target: DNA damage-inducible transcript 3 protein (Mus musculus, UniProt P35639); type: functional, Cricetulus griseus
DNA damage-inducible transcript 3 protein, sequence (P35639 whole entry): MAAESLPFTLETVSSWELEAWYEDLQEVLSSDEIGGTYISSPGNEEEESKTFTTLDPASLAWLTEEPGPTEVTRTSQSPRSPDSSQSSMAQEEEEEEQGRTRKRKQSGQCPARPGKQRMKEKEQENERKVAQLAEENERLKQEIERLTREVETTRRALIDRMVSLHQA

INS1 = experiment: INS-1E survival protection against cytokine death – cell-based, luminescence, retest, dose response (AID 449756); type: functional; conditions: Rattus norvegicus;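 also: cell death triggered by IL-1 beta plus TNF-alpha plus IFN-gamma mixture; protective hits raise ATP signal compared with cytokine alone wells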
Hexokinase-1 = molecular target: T4, Hexokinase-1 (Homo sapiens, UniProt P19367); experiment: HK1 enzyme activation by HKDC1 hits – biochemical, selectivity assay for HKDC1 activator project, dose response (AID 504762); type: functional
T4 sequence (P19367 whole entry): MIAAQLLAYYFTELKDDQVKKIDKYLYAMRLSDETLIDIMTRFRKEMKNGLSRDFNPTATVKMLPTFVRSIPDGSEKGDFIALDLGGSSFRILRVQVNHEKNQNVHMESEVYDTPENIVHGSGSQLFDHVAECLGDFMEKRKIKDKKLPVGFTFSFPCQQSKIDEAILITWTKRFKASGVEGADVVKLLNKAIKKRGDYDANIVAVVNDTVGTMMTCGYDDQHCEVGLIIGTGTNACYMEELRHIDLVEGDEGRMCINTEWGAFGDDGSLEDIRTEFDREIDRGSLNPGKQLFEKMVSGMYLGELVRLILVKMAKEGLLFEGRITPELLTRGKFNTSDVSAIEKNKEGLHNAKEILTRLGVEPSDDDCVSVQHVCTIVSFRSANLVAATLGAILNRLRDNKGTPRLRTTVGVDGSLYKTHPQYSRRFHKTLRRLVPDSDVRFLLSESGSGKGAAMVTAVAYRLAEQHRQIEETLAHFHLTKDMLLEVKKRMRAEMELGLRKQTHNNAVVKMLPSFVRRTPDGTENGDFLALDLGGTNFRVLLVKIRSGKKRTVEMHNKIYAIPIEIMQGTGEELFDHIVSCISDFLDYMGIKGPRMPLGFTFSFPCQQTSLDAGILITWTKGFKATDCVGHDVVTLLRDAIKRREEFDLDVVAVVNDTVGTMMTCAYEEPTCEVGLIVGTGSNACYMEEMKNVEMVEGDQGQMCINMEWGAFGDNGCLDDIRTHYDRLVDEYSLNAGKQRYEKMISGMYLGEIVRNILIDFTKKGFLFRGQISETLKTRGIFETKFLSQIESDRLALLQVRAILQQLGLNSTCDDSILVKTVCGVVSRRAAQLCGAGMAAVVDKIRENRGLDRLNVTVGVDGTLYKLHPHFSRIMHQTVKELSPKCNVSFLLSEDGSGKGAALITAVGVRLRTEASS

Hexokinase HKDC1 = molecular target: T5, Hexokinase HKDC1 (Homo sapiens, UniProt Q2TB90); experiment: activation of HKDC1 glucose phosphorylation – biochemical, W721R variant, dose response (AID 504730); type: functional
T5 sequence (Q2TB90 whole entry): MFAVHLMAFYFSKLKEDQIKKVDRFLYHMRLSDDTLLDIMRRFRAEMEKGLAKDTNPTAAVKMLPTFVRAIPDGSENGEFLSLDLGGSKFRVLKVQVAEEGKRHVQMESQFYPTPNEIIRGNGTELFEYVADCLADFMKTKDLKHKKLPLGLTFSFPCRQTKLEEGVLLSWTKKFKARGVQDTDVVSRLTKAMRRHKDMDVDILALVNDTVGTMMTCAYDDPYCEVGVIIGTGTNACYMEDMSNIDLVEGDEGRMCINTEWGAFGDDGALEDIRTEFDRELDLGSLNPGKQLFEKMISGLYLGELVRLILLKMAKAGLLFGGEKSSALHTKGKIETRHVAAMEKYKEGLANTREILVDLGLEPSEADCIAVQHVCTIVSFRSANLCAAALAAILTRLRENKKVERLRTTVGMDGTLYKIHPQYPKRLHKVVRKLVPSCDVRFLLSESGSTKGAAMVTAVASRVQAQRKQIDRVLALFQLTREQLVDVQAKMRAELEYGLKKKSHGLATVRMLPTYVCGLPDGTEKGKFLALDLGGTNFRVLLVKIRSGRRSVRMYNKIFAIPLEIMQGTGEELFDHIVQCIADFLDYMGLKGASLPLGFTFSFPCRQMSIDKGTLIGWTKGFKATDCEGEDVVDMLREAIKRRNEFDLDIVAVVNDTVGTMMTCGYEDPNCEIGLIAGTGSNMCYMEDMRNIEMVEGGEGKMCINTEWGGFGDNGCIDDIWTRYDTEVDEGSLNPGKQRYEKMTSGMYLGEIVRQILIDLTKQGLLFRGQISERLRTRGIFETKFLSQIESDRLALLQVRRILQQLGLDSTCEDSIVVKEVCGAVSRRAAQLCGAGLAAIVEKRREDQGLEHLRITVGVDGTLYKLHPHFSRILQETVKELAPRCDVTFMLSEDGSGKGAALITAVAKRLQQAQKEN

[14] = Luminescence Cell-Based Dose Retest to Confirm Inhibitors of Cancer Stem Cells. [Related pubchem assays (depositor defined):AID2717, AID2721]; type: functional, Homo sapiens; conditions: Homo sapiens
[15] = molecular target: T6, Rac GTPase-activating protein 1 (Homo sapiens, UniProt Q9H0H5); experiment: blockers of MgcRacGAP-driven Rac1 GTP hydrolysis – biochemical, ADP Hunter fluorescence, primary and confirmatory, confirmation (AID 624330); type: functional
T6 sequence (Q9H0H5 whole entry): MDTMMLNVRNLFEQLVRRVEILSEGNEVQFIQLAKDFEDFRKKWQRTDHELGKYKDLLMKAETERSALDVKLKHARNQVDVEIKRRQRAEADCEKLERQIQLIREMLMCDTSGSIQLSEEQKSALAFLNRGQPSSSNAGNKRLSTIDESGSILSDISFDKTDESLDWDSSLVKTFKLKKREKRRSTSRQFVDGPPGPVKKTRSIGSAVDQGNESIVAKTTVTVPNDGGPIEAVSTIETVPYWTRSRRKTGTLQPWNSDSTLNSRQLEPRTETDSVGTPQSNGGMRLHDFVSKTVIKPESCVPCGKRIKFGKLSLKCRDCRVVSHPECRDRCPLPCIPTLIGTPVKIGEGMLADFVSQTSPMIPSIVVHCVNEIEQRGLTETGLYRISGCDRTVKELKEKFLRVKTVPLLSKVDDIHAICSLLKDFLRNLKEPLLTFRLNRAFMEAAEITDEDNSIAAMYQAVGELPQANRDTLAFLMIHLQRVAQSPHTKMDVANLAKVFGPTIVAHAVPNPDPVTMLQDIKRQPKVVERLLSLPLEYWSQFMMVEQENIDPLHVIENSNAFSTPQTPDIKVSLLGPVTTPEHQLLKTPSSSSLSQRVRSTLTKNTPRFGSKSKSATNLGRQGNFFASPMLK

Cc1ccc(OCc2nnc(SCC(=O)O)n2N)cc1
IC50 (Coagulation factor XII): > 50 µM (inactive)

C=CCn1c(-c2cc(Cl)ccc2OC)n[nH]c1=S
IC50 [1]: 8.82 µM (active)
EC50 [2]: > 112 µM (not active)
EC50 [3]: > 79.4 µM (not active)
EC50 [4]: 28.9 µM (not active)
EC50 [5]: 21.4 µM (inactive)

CCN1C(=O)/C(=C/C=C2/SCCN2C)SC1=S
EC50 (Troponin, cardiac muscle): 1.54 µM (active)
AC50 (Cytochrome P450 2C9): 4.47 µM (inconclusive)

CCN1CCCC1CNC(=O)CSc1cc(=O)n(CC)c2ccccc12 (configuration not stated)
EC50 [3]: > 79.4 µM (not active)
EC50 [4]: > 79.4 µM (not active)
EC50 [5]: > 79.4 µM (inactive)

Cc1cccc2cc3c(N)c(C#N)sc3nc12
EC50 [6]: 43.1 µM (inactive)
AC50 [7]: 5.1 µM (active)
Absolute IC50 (XBP1) (X-box-binding protein 1): 10 µM
AC50 [8]: 6.95 µM (active)
AC50 [9]: 1.94 µM (active)
AC50 [10]: 2.64 µM (active)
EC50 [11]: > 99 µM (inactive)
EC50 [12]: > 195 µM (not active)
Absolute IC50 (CHOP) [13]: 10 µM

O=C(CNCc1cccs1)Nc1ccc(S(=O)(=O)N2CCCCC2)cc1
EC50 (Troponin, cardiac muscle): > 71.5 µM (inactive)

Cc1nc2c3cc(F)ccc3n(Cc3ccccc3)c2s1
AC50 (INS1): > 260 µM (inactive)
EC50 (Hexokinase-1): 57.5 µM (inactive)
EC50 (Hexokinase HKDC1): 39.2 µM (inactive)
AC50 [14]: 83.6 µM (active)

COC(=O)c1ccc(NC(=S)Nc2ccc(O)cc2)cc1
IC50 [15]: 43.1 µM (active)
IC50 (Coagulation factor XII): > 50 µM (inactive)

Reference: ChEMBL document CHEMBL1201862, “PubChem BioAssay data set” (2004)
